The text below walks through data of patent US11414387B2, “Oxoacridinyl acetic acid derivatives and methods of use” (Stingthera, Inc., priority 2017, dated 2022).

In general, IC50 refers to the concentration at which inhibition is half-maximal. A high value points to weaker potency in that assay.

One experiment has as its target mSTING (Mus musculus, UniProt Q3TBT3). The experiment in a line: Radiometric filtration binding competition assay, mSTING.
The next experiment deals with hSTING-WT (Homo sapiens (Human), UniProt Q86WV6, H232R). The experiment in a line: Radiometric filtration binding competition assay, hSTING-WT.
hSTING-WT, sequence (Q86WV6 140-379 H232R): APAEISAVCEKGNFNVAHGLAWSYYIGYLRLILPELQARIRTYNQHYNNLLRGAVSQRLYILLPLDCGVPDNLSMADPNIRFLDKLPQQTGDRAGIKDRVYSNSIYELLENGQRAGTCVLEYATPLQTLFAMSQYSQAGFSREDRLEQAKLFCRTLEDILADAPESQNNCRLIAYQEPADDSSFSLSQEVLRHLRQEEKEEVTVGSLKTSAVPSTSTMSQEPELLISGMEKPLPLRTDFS
A further experiment addresses mSTING-R232 (Mus musculus, UniProt Q3TBT3). The experiment in a line: STING differential scanning fluorimetry (DSF) assay, mouse STING. As to conditions: net shift in melting temperature. On the technique in general: Differential scanning fluorimetry follows unfolding on heating by fluorescence.
The target in a further experiment is hSTING-R232 (Homo sapiens (Human), UniProt Q86WV6, H232R). The experiment is described as follows: STING differential scanning fluorimetry (DSF) assay, WT human STING. As to conditions: WT (R232) human STING aa140-379, net shift in melting temperature.
hSTING-R232, sequence (Q86WV6 140-379 H232R): as above
Another experiment has as its target STING protein (Homo sapiens (Human), UniProt Q86WV6, H232R). The experiment in a line: Cell based reporter assay of IRF activation (IRF-luciferase), THP1-dual-KI R232. The conditions noted are these: read-out: THP1-dual-KI R232_IRF(Luciferase)_Activity Maximum measured (%). Background: In a reporter assay the amount or activity of a reporter protein is the signal.

STING protein, sequence (Q86WV6 whole entry H232R): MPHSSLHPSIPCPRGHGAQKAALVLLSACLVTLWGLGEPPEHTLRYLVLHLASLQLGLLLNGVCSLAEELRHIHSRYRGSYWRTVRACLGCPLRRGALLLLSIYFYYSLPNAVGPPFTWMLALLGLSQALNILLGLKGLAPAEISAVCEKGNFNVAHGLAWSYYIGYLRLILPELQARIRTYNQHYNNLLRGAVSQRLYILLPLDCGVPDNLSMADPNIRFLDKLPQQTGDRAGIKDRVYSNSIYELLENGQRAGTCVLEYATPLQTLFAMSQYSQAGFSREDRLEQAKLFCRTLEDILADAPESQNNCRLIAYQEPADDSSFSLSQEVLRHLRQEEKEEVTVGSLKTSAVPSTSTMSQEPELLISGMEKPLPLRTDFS
Excerpt for STING protein: Briefly, THP-1 monocytes were transfected and selected for stable integration of 2 reporter constructs. Clones incorporating stably integrated vectors were further selected by antibiotic resistance to blastocidin and zeocin. The reporter constructs included: (1) firefly luciferase reporter gene under the control of an ISG54 promoter fused to five interferon (IFN)-stimulated response elements to measure IRF transcription factor binding activity and (2) secreted embryonic alkaline phosphatase reporter gene under transcription control of an IFN-beta minimal promoter fused to 5 copies of the NFkB consensus transcriptional response element and 3 copies of the c-Rel binding site.
The resulting THP-1 cell line was further modified to incorporate 3 amino acid point mutations (H71R A230G Q293R). This modification of the native TMEM173 gene in THP-1 cells (HAQ) was designed to produce a cell reporter that expressed the most common allelic variant in the human population (THP-1 R232, available from InvivoGen). Alternatively, the TMEM173 gene was knocked out to provide a congenic control to counter-screen for compound activation that was independent of the STING protein (THP-1 STING KO).
Once cell lines were established, reporter assay protocols were developed and optimized to screen small molecule compounds for agonist activity. Assay optimization for efficacy and Z′ value included titration of the following parameters:
• 1. Cell pre-activation with PMA • 2. Cell seeding density • 3. DMSO tolerance • 4. Media selection • 5. FBS concentration • 6. Incubation time • 7. Co-Assessment of cell viability by CTG assay • 8. Appropriate HPE and ZPE controls • 9. Dose Response Titration Final Assay SOP Conditions • 1. No pre-activation with PMA • 2. 5×10^4 cells/well in 96 well plate format • 3. <0.5% DMSO • 4. […] 10% FBS • 6. 14-18 hr incubation • 7. Cell Titer Glo reagent (Promega) following supernatant removal • 8.
Description for hSTING-R232: (§1) A STING DSF assay was performed to determine protein thermostability shift in response to small molecule ligand binding. A STING thermostability shift assay based on differential scanning fluorimetry was used to measure (1) the net shift in melting temperature (ΔTm)between the apo and ligand-bound states of the STING protein and (2) the concentration of the thermal denaturation transition (EC50) as a surrogate measure of binding affinity (K). […] Protein in assay buffer was transferred to a 384 well plate and incubated with the hydrophobic fluorescent dye SYBR Orange. A temperature ramp was applied to the plate and the resulting dye fluorescence was plotted as a function of temperature. The first derivative of this function (dF/dT) was then used to extrapolate the melting temperature of the protein at various concentrations of compound and determine the thermal denaturation profile of a protein/compound complex.
(§2) • 1. Protein construct (affinity tag removal vs SUMO-fusion construct) • 2. Protein concentration • 3. Dye concentration • 4. Buffer • 5. Thermal ramp velocity • 6. DMSO tolerance • 7. Compound titration parameters • 8. […] 5 μM purified Target STING Protein • 3. 8 μM Sypro Orange Dye • 4. Buffer: 100 mM NaCl, 30 mM HEPES, pH 7.5 • 5. Thermal Ramp: 0.5° C./min • 6. <1% DMSO • 7. 11 point, 2 fold dilution, duplicate, 300 μM high concentrations • 8.
Description for hSTING-WT: A radiometric filtration binding competition assay was performed to quantify the binding affinity of compounds of the present application for the human or mouse STING protein, or associated HAQ human isoform. […] The resulting dose response was fit by non-linear regression to determine an IC50 value, from which a Ki value for each compound was extrapolated.
The resulting complexes were then filtered, dried, and scintillation fluid was added and the remaining radio signal was measured to determine the degree of compound ligand inhibition. This assay format was optimized for both the WT and HAQ isoforms of the human protein and the mouse orthologue protein.
Probe Concentration: Minimum concentration that achieved max assay window • g. Assay Format: Scintillation Proximity Bead or Filtration Binding Plate • h. […] Assay incubation times for successive incubation steps
WT-hSWAT: WT_FBA_HIS-SUMO-hSWAT IC50 (μM) (“WT”=Wild-type); HAQ-hSWAT: HAQ_FBA_HIS-SUMO-hSWAT IC50 (μM) (“HAQ”=human HAQ allele of STING protein); and WT-mSWAT: MOUSE_FBA_HIS-SUMO-mnSWAT IC50 (μM) which is the mouse isoform of STING protein.
Description for mSTING-R232: as §1, §2

As for `CCOc1c(Cl)ccc2c(=O)c3ccc(C(C)C)cc3n(CC(=O)O)c12` [Compound 288], the IC50 on mSTING and on hSTING-WT was less than 20 µM each time. In addition, at mSTING-R232, the “MOUSE DSF_6xHIS-SUMO Tm Shift (° C.)” value is recorded as “D (“D” > 15° C.)”. Besides, the “WT_DSF_hSWAT Tm Shift (° C.)” value at hSTING-R232 is given as “D (“D” > 7° C.)”. Moreover, the Emax on STING protein is greater than 50%.

For `CC(C)c1ccc2c(=O)c3ccc(Cl)c(-c4ccccc4)c3n(CC(=O)O)c2c1` [Compound 289], the 50% inhibitory concentration (IC50) at mSTING and on hSTING-WT was less than 20 µM each time. The “MOUSE DSF_6xHIS-SUMO Tm Shift (° C.)” value on mSTING-R232 was “C (“C” = 5-15° C.)”. Further, the “WT_DSF_hSWAT Tm Shift (° C.)” value at hSTING-R232 is on record as “D (“D” > 7° C.)”. The Emax at STING protein was greater than 50%.

As for `CSc1c(Cl)ccc2c(=O)c3ccc(Nc4cnccn4)cc3n(CC(=O)O)c12` [Compound 291], the IC50 on mSTING and at hSTING-WT was less than 20 µM in each case. The “MOUSE DSF_6xHIS-SUMO Tm Shift (° C.)” value on mSTING-R232 was “D (“D” > 15° C.)”. Further, the “WT_DSF_hSWAT Tm Shift (° C.)” value on hSTING-R232 is on record as “D (“D” > 7° C.)”. Further, on STING protein, the Emax was less than 5%.

Turning to `COc1c(Cl)ccc2c(=O)c3ccc(NC4CCC4)cc3n(CC(=O)O)c12` [Compound 292], the IC50 at mSTING and at hSTING-WT was less than 20 µM throughout. Besides, the “MOUSE DSF_6xHIS-SUMO Tm Shift (° C.)” value on mSTING-R232 is “D (“D” > 15° C.)”. The “WT_DSF_hSWAT Tm Shift (° C.)” value on hSTING-R232 is reported as “D (“D” > 7° C.)”. The Emax at STING protein is greater than 50%.

For `COc1c(Cl)ccc2c(=O)c3ccc(NC4CCCC4)cc3n(CC(=O)O)c12` [Compound 293], the IC50 on mSTING and on hSTING-WT was less than 20 µM each time. The “MOUSE DSF_6xHIS-SUMO Tm Shift (° C.)” value at mSTING-R232 is “D (“D” > 15° C.)”. The “WT_DSF_hSWAT Tm Shift (° C.)” value at hSTING-R232 is “D (“D” > 7° C.)”. Moreover, on STING protein, the Emax was greater than 50%.

Turning to `CCc1ccc2c(=O)c3ccc(Cl)c(OC)c3n(CC(=O)O)c2c1` [Compound 294], the IC50 at mSTING and at hSTING-WT was 20 to 100 µM throughout. For the same compound, the “MOUSE DSF_6xHIS-SUMO Tm Shift (° C.)” value on mSTING-R232 was “C (“C” = 5-15° C.)”. Moreover, the “WT_DSF_hSWAT Tm Shift (° C.)” value at hSTING-R232 was “D (“D” > 7° C.)”. Also, the Emax on STING protein is greater than 50%.

For `COc1c(Cl)ccc2c(=O)c3ccc(Nc4cccc5ccccc45)cc3n(CC(=O)O)c12` [Compound 297], the IC50 at mSTING and on hSTING-WT was less than 20 µM each time. In addition, at mSTING-R232, the “MOUSE DSF_6xHIS-SUMO Tm Shift (° C.)” value was “D (“D” > 15° C.)”. Also, the “WT_DSF_hSWAT Tm Shift (° C.)” value on hSTING-R232 is “D (“D” > 7° C.)”. The Emax on STING protein was greater than 50%.

In the case of `COc1ccccc1Nc1ccc2c(=O)c3ccc(Cl)c(OC)c3n(CC(=O)O)c2c1` [Compound 298], the half-inhibitory concentration (IC50) is less than 20 µM on mSTING and 20 to 100 µM on hSTING-WT. At mSTING-R232, the “MOUSE DSF_6xHIS-SUMO Tm Shift (° C.)” value is recorded as “D (“D” > 15° C.)”. The “WT_DSF_hSWAT Tm Shift (° C.)” value on hSTING-R232 is on record as “D (“D” > 7° C.)”. Further, at STING protein, the Emax is greater than 50%.

For `CCOc1c(Cl)ccc2c(=O)c3ccc(CC)cc3n(CC(=O)O)c12` [Compound 306], the IC50 at mSTING and at hSTING-WT was less than 20 µM each time. Besides, the “MOUSE DSF_6xHIS-SUMO Tm Shift (° C.)” value on mSTING-R232 is given as “D (“D” > 15° C.)”. Further, the “WT_DSF_hSWAT Tm Shift (° C.)” value on hSTING-R232 is listed as “D (“D” > 7° C.)”. Moreover, the Emax on STING protein was greater than 50%.

For `CCN(C)c1c(Cl)ccc2c(=O)c3ccc(C)cc3n(CC(=O)O)c12` [Compound 307], the concentration for half-maximal inhibition (IC50) at mSTING and on hSTING-WT was 20 to 100 µM in each case. Further, the “MOUSE DSF_6xHIS-SUMO Tm Shift (° C.)” value at mSTING-R232 is “D (“D” > 15° C.)”. For the same compound, the “WT_DSF_hSWAT Tm Shift (° C.)” value on hSTING-R232 was “D (“D” > 7° C.)”. On STING protein, the Emax is greater than 50%.

In the case of `Cc1ccc2c(=O)c3ccc(Cl)c(N(C)C)c3n(CC(=O)O)c2c1` [Compound 308], the IC50 at mSTING and on hSTING-WT was less than 20 µM in each case. Also, the “MOUSE DSF_6xHIS-SUMO Tm Shift (° C.)” value on mSTING-R232 was “D (“D” > 15° C.)”. Further, at hSTING-R232, the “WT_DSF_hSWAT Tm Shift (° C.)” value is on record as “D (“D” > 7° C.)”. Also, the Emax on STING protein is greater than 50%.

In the case of `CSc1c(Cl)ccc2c(=O)c3ccc(Br)cc3n(CC(=O)O)c12` [Compound 309], the IC50 on mSTING and at hSTING-WT was 20 to 100 µM each time. The “MOUSE DSF_6xHIS-SUMO Tm Shift (° C.)” value at mSTING-R232 is given as “C (“C” = 5-15° C.)”. In addition, the “WT_DSF_hSWAT Tm Shift (° C.)” value on hSTING-R232 is on record as “D (“D” > 7° C.)”. In addition, the Emax on STING protein is greater than 50%.

For the compound `CN(Cc1ccccc1)c1c(Cl)ccc2c(=O)c3ccccc3n(CC(=O)O)c12` [Compound 310], the values for the IC50 on mSTING and on hSTING-WT were greater than 300 µM and 100 to 300 µM, respectively. Also, at mSTING-R232, the “MOUSE DSF_6xHIS-SUMO Tm Shift (° C.)” value is reported as “A (“A” < 0° C.)”. Moreover, the “WT_DSF_hSWAT Tm Shift (° C.)” value on hSTING-R232 is recorded as “A (“A” < 0° C.)”. On STING protein, the Emax lay within 5 to 25%.

As to `C=CCOc1c(Cl)ccc2c(=O)c3ccc(C)cc3n(CC(=O)O)c12` [Compound 311], the IC50 on mSTING is less than 20 µM; at hSTING-WT, 20 to 100 µM. Further, the “MOUSE DSF_6xHIS-SUMO Tm Shift (° C.)” value on mSTING-R232 is “C (“C” = 5-15° C.)”. Further, the “WT_DSF_hSWAT Tm Shift (° C.)” value on hSTING-R232 is reported as “D (“D” > 7° C.)”. The Emax at STING protein is greater than 50%.

As for `CC(=O)COc1c(Cl)ccc2c(=O)c3ccccc3n(CC(=O)O)c12` [Compound 312], the IC50 at mSTING and on hSTING-WT was greater than 300 µM throughout. For the same compound, the “MOUSE DSF_6xHIS-SUMO Tm Shift (° C.)” value at mSTING-R232 was “B (“B” = 0-5° C.)”. For the same compound, the “WT_DSF_hSWAT Tm Shift (° C.)” value at hSTING-R232 was “B (“B” = 0-2° C.)”. On STING protein, the Emax is less than 5%.

In the case of `COc1c(Cl)cc(O)c2c(=O)c3ccccc3n(CC(=O)O)c12` [Compound 314], the results for the IC50 on mSTING and at hSTING-WT were 100 to 300 µM and greater than 300 µM, respectively. For the same compound, at mSTING-R232, the “MOUSE DSF_6xHIS-SUMO Tm Shift (° C.)” value was “C (“C” = 5-15° C.)”. Further, the “WT_DSF_hSWAT Tm Shift (° C.)” value on hSTING-R232 is given as “C (“C” = 2-7° C,)”. Further, on STING protein, the Emax is greater than 50%.

Take `COc1cc2c(=O)c3ccc(Cl)c(OC)c3n(CC(=O)O)c2cc1C(C)C` [Compound 318]: the values for the IC50 at mSTING and at hSTING-WT were greater than 300 µM and 100 to 300 µM, respectively. Also, at mSTING-R232, the “MOUSE DSF_6xHIS-SUMO Tm Shift (° C.)” value was “B (“B” = 0-5° C.)”. On hSTING-R232, the “WT_DSF_hSWAT Tm Shift (° C.)” value is given as “C (“C” = 2-7° C,)”. Further, the Emax at STING protein was 5 to 25%.

Regarding `C[C@@H](O)COc1c(Cl)ccc2c(=O)c3ccccc3n(CC(=O)O)c12` [Compound 323], the IC50 on mSTING and on hSTING-WT was less than 20 µM each time. The “MOUSE DSF_6xHIS-SUMO Tm Shift (° C.)” value at mSTING-R232 is on record as “D (“D” > 15° C.)”. Also, the “WT_DSF_hSWAT Tm Shift (° C.)” value on hSTING-R232 is reported as “D (“D” > 7° C.)”. For the same compound, on STING protein, the Emax is less than 5%.

Regarding `CN(C)c1c(Cl)ccc2c(=O)c3ccc(C(C)(C)C)cc3n(CC(=O)O)c12` [Compound 324], the IC50 at mSTING and at hSTING-WT was less than 20 µM in each case. For the same compound, the “MOUSE DSF_6xHIS-SUMO Tm Shift (° C.)” value at mSTING-R232 is “D (“D” > 15° C.)”. In addition, the “WT_DSF_hSWAT Tm Shift (° C.)” value on hSTING-R232 is “D (“D” > 7° C.)”. On STING protein, the Emax was greater than 50%.

Turning to `Cc1ccc2c(=O)c3ccc(Cl)c(OCC4CC4)c3n(CC(=O)O)c2c1` [Compound 325], the IC50 at mSTING and at hSTING-WT was 100 to 300 µM in each case. Besides, the “MOUSE DSF_6xHIS-SUMO Tm Shift (° C.)” value on mSTING-R232 is “C (“C” = 5-15° C.)”. For the same compound, the “WT_DSF_hSWAT Tm Shift (° C.)” value at hSTING-R232 is given as “C (“C” = 2-7° C,)”. For the same compound, at STING protein, the Emax was in the range of 25 to 50%.

Consider `Cc1ccc2c(=O)c3ccc(Cl)c(-c4ccccc4)c3n(CC(=O)O)c2c1` [Compound 326], for which the IC50 on mSTING and at hSTING-WT was less than 20 µM each time. At mSTING-R232, the “MOUSE DSF_6xHIS-SUMO Tm Shift (° C.)” value is recorded as “D (“D” > 15° C.)”. Besides, the “WT_DSF_hSWAT Tm Shift (° C.)” value at hSTING-R232 was “D (“D” > 7° C.)”. The Emax on STING protein was greater than 50%.

On to `CC(C)c1ccc2c(=O)c3ccc(Cl)c(OC[C@@H](C)O)c3n(CC(=O)O)c2c1` [Compound 327], for which the half-maximal inhibitory concentration (IC50) on mSTING and on hSTING-WT was greater than 300 µM in each case. Besides, the “MOUSE DSF_6xHIS-SUMO Tm Shift (° C.)” value on mSTING-R232 was “C (“C” = 5-15° C.)”. Further, the “WT_DSF_hSWAT Tm Shift (° C.)” value at hSTING-R232 was “C (“C” = 2-7° C,)”. Moreover, the Emax at STING protein is less than 5%.
